Assay results as given in patent US8017597B2, “Analgesic agent comprising cyclic phosphatidic acid derivative” (Ochanomizu University, priority 2006, dated 2011).
“Also recorded” adds a separate entry of the source. Where two headings read alike, the source gives them in different places.

Experiments:
[1] = tested on: anesthetized rats; assay: Heart rate increase reaction induced by frequent electrical stimulation of hindlimb afferent nerves, i.v. administration; format: in vivo, rat; settings: for suppressive effect on heart rate increase: anesthetized rats, i.v., electrical stimulation of lower extremity nerves
Description: Among (1) “heart rate increase reaction induced by frequent electrical stimulation of hindlimb afferent nerves” employed herein is not induced by weak stimulation intensity (0.2 V) that excites only thick medullated A-fibers, but induced by stimulation intensity (1 V) that is the same or higher than the excitation threshold of thin medullated A-fibers. When the stimulation intensity is further increased (10 V) so as to cause excitation of nonmedullated C fibers, the amplification of the heart rate increase reaction is increased to reach the maximum level (Sato et al, J Auton Nery Syst 4: 231, 1981; Uchida et al, Neurosci Left 269: 161, 1999). Noxious information is transmitted by A-fibers and C fibers. Therefore, such heart rate increase reaction induced by excitation of somatic afferent A-fibers and C fibers can be an indicator for evaluation of analgesic effects.
Blood pressure waveform was collected using a pulse rate tachometer (AT601-O, Nihon Kohden) and the heart rate was recorded continuously.

[2] = Arterial blood pressure after i.v. cPA administration; format: in vivo, rat
Description: The right femoral artery was cannulated. Arterial blood pressure was continuously recorded from the intra-arterial cannula using a pressure transducer (TP-400T, Nihon Kohden, Tokyo).

[3] = tested on: anesthetized rats
[4] = tested on: DNA polymerase α of eukaryotic cells; settings: cited from earlier work
Chain of DNA polymerase α of eukaryotic cells (P09884 whole entry): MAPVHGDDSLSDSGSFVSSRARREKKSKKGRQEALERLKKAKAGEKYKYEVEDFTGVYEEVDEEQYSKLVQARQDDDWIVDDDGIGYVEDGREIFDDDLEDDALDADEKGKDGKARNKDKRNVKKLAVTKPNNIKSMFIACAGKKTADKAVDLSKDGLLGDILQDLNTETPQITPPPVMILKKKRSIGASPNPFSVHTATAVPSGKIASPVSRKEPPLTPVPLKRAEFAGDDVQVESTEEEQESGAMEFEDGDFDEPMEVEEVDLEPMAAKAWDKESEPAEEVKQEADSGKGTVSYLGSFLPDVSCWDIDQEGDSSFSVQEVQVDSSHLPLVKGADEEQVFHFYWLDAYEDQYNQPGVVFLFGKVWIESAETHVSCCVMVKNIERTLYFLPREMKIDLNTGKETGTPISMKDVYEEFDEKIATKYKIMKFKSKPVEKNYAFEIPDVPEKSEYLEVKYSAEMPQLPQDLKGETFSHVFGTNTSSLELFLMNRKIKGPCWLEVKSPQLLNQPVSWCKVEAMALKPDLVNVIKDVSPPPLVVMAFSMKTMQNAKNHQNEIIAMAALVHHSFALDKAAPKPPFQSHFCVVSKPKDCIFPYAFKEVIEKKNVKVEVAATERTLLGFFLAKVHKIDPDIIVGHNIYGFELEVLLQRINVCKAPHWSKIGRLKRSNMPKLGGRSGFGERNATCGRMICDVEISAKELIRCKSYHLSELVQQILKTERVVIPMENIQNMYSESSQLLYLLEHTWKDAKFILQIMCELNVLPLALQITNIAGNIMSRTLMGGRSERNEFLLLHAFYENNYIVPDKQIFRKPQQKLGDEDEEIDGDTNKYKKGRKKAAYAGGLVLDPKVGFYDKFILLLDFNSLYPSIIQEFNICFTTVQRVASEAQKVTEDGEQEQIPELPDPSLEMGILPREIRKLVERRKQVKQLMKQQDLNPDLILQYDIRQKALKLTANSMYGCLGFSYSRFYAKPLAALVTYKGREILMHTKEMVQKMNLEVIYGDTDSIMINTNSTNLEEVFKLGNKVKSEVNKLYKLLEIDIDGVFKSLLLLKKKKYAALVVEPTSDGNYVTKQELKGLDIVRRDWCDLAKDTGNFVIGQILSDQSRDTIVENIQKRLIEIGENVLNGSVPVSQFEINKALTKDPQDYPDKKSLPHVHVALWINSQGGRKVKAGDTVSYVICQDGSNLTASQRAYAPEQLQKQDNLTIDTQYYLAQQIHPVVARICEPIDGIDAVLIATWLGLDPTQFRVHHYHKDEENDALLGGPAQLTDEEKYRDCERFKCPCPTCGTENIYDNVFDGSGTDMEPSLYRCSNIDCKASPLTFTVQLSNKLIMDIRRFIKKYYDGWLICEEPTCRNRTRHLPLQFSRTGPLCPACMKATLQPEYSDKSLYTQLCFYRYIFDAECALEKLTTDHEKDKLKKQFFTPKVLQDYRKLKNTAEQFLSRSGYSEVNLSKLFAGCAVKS
Chain of DNA polymerase α of eukaryotic cells (Q14181 whole entry partner): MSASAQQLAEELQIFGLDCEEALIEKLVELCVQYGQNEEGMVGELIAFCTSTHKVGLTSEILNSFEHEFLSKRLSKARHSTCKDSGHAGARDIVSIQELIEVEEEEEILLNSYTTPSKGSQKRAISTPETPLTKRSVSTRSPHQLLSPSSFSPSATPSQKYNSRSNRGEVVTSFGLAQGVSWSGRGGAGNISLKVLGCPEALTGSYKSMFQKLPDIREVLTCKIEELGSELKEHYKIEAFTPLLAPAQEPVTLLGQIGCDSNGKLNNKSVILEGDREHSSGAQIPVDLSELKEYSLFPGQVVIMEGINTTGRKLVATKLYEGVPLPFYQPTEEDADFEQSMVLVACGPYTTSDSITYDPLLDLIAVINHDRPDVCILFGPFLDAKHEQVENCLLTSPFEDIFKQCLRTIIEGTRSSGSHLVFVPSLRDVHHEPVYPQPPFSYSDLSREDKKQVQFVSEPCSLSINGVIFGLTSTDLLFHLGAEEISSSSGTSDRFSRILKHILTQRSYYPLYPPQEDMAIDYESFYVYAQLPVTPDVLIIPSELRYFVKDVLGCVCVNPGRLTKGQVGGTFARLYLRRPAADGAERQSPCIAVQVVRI
Chain of DNA polymerase α of eukaryotic cells (P49642 whole entry partner): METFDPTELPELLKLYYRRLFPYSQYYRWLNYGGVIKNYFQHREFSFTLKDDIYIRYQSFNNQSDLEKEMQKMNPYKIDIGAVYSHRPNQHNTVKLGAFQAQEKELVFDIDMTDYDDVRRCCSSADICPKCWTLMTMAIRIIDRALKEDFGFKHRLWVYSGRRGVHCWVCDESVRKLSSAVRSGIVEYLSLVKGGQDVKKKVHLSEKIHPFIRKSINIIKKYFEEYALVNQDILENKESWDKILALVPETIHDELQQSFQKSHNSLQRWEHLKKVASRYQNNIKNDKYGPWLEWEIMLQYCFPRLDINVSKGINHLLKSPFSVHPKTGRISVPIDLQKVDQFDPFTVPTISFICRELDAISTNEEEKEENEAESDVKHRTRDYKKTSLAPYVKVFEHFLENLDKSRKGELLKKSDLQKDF
Chain of DNA polymerase α of eukaryotic cells (P49643 whole entry partner): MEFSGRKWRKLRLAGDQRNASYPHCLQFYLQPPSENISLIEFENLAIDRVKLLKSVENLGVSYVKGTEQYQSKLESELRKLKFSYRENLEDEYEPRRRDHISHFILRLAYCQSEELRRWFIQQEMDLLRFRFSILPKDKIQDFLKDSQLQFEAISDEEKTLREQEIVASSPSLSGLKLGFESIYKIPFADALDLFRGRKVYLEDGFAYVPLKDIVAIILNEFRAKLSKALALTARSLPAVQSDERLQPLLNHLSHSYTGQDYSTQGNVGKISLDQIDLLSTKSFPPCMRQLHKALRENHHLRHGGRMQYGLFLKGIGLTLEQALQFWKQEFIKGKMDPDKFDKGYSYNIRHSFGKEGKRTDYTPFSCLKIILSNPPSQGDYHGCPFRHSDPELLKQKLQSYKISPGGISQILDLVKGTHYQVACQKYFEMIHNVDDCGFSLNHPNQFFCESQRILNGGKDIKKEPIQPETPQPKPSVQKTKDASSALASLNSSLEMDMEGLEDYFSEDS

[5] = tested on: anesthetized cats; settings: cited from earlier work
[6] = 50 μg/Kg i.v., 10 to 15 minutes after administration
[7] = 100 μg/Kg i.v., 10 to 15 minutes after administration
[8] = 200 μg/Kg i.v., 10 to 15 minutes after administration

## CCCCCCCC/C=C\CCCCCCCC(=O)OCC1COP(=O)(O)O1 (stereo not shown) [Ole-cPA, 1-oleoyl cyclic phosphatidic acid]
[1]
  suppressive effect on heart rate increase: significantly suppressed; also recorded: significantly observed
[1]; dose 5 mg/Kg body weight i.v.
  heart rate increase compared with control: a half of or lower than that of the control
[1]; dose 5 mg/Kg i.v., after 20 minutes
  suppressive effect on heart rate increase after 20 minutes: significant suppressive effect
[1]; dose higher than 1 mg/Kg body weight i.v.
  duration of the suppressive effect on heart rate increase: ≥ 20 min
[2]; anesthetized rats, i.v.
  effects of administration on blood pressure: not observed
[2]; dose 2 mg/Kg body weight or less i.v.
  blood pressure: ~90 mmHg
[3]; 2 mg/Kg i.v.
  decrease in depolarization level of C reflex: approximately 50%
[3]; after administration, compared with C reflex
  changes in discharge level of Aδ reflex: inconsistent
[3]; anesthetized rats, i.v.
  change in discharge/depolarization level of cardiac nerves, particularly C reflex: decreased
[3]; any concentration, 10 to 15 minutes after administration
  decrease in discharge level of C reflex: approximately 1 mV
[3]; any concentration, 10 to 15 minutes after administration, relative to before administration
  decrease in discharge level of C reflex: up to 40%
[3]; dose 2 mg/Kg, 30 minutes after administration, compared with before administration
  decrease in discharge level of C reflex: approximately 20%

## CCCCCC[C@@H]1C[C@@H]1CCCCCCCC(=O)OC[C@@H]1COP(=O)(O)O1 [PHYLPA]
[4]
  effect on activity of DNA polymerase α: suppresses

## CCCCCC/C=C\CCCCCCCC(=O)OCC1COP(=O)(O)C1 (stereo not shown) [Pal-2 ccPA, palmitoleoyl 2 carba cPA]
[3]; [6]
  decrease in depolarization level of C reflex: ≥ 30%
[3]; [7]
  decrease in depolarization level of C reflex: approximately 60%
[3]; [8]
  decrease in depolarization level of C reflex: approximately 70%
[3]; 500 μg/Kg i.v., 10 to 15 minutes after administration
  decrease in depolarization level of C reflex: approximately 80%
[3]; anesthetized rats, i.v.
  change in discharge/depolarization level of cardiac nerves, particularly C reflex: significant decrease

## CCCCCC/C=C\CCCCCCCC(=O)OCC1CCP(=O)(O)O1 (stereo not shown) [Pal-3 ccPA, palmitoleoyl 3 carba cPA]
[3]; [6]
  decrease in depolarization level of C reflex: approximately 30%
[3]; [7]
  decrease in depolarization level of C reflex: approximately 50%
[3]; [8]
  decrease in depolarization level of C reflex: approximately 60%
[3]; anesthetized rats, i.v.
  change in discharge/depolarization level of cardiac nerves, particularly C reflex: significant decrease
[3]; i.v., anesthetized rats
  degree of decrease in C reflex depolarization compared with 2 carba derivatives: somewhat lower

## CCCCCCCCCCCCCCCC(=O)OCC1COP(=O)(O)O1 (stereo not shown) [Pal-cPA]
[1]
  suppressive effect on heart rate increase: no consistent tendency could be confirmed; also recorded: not significant
[2]; after dose of 2 mg/Kg body weight i.v.
  blood pressure: 130 mmHg
[2]; dose 300 μg/Kg body weight i.v., brief increase
  blood pressure: around 100 mmHg
[2]; dose 2 mg/Kg i.v., thereafter up to 30 minutes after administration
  blood pressure: around 130 mmHg

## CN1CC[C@]23c4c5ccc(O)c4O[C@H]2[C@@H](O)C=C[C@H]3[C@H]1C5 [morphine]
[5]
  effect on C-reflex potential: selectively suppresses C-reflex potential alone
